Experiments:
ChiB = target: T1, ChiB (Clostridium perfringens, UniProt F8UNI4)
T1 construct: gene CP4_3454

[1] = target: T2, ChiA (N-terminally trimmed version) (Clostridium perfringens, UniProt F8UNI5)
T2 construct: gene CP4_3455

[2] = target: T2, ChiA (N-terminally trimmed version); remark: listed apart in the source

T2 sequence (F8UNI5 46-611 limits assumed): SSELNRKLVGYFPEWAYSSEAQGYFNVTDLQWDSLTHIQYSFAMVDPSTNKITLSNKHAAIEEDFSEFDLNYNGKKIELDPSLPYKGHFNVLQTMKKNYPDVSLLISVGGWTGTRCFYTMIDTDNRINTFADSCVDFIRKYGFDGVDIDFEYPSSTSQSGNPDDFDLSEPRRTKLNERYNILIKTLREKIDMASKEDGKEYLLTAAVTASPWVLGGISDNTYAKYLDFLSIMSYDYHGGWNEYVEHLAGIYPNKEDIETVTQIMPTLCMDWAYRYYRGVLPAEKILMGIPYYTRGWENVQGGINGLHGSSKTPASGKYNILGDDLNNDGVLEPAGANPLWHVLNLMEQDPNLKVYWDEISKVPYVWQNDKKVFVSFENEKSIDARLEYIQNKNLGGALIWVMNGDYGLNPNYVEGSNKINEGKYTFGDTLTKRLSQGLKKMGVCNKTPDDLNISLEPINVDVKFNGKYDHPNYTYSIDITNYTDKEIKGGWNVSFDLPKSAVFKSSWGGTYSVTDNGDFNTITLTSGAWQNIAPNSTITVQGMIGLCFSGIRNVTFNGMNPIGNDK
T1 sequence (F8UNI4 1-599): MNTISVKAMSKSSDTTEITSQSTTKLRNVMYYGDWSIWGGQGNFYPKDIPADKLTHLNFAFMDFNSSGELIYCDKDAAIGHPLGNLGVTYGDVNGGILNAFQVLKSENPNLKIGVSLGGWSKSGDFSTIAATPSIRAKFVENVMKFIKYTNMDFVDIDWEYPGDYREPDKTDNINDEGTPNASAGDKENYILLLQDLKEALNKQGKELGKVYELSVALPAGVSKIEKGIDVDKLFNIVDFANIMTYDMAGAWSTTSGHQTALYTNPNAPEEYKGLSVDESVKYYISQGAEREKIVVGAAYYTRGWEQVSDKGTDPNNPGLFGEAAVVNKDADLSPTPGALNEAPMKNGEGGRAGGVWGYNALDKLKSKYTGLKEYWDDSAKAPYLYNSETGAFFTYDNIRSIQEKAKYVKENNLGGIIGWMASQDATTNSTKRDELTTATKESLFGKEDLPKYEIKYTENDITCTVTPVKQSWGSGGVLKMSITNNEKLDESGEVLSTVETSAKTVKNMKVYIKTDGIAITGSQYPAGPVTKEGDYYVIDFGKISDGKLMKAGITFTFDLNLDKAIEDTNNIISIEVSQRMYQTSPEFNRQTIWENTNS

SMILES	X-ray co-crystal structure, 1.85 Å (ChiB)	X-ray crystal structure by soaking, 1.35 Å [1]	X-ray co-crystal structure, 1.30 Å [2]
Cn1cnc2c1c(=O)n(CCCn1c(=O)c3c(ncn3C)n(C)c1=O)c(=O)n2C [Bisdionin C]	The crystal of ChiB in complex with the chitinase inhibitor Bisdionin C	The crystal of ChiA in complex with the chitinase inhibitor Bisdionin C	
N[C@H]1[C@H](O[C@H]2[C@H](O)[C@@H](N)[C@H](O[C@H]3[C@H](O)[C@@H](N)[C@H](O[C@H]4[C@H](O)[C@@H](N)[C@H](O[C@H]5[C@H](O)[C@@H](N)[C@H](O[C@H]6[C@H](O)[C@@H](N)C(O)O[C@@H]6CO)O[C@@H]5CO)O[C@@H]4CO)O[C@@H]3CO)O[C@@H]2CO)O[C@H](CO)[C@@H](O)[C@@H]1O (stereo partly drawn) [chitosan hexamer]			The crystal of ChiA in complex with the chitinase inhibitor chitosan

Source: PMC11426533 (PLOS Pathogens, 2024)
